Data: US20250257064A1, “TRIFLUOROMETHYL-SUBSTITUTED SULFONAMIDE AS BCL-2-SELECTIVE INHIBITOR” (Chia Tai Tianqing Pharmaceutical Group Co., Ltd., priority 2018, published 2025)

Columns and labels:
[1] = test system: human platelet Caspase-3 activity; test: Human platelet toxicity experiment (Caspase-3 activity assay); assay type: cell-based; conditions: compound concentration 1 μM, 90 min; data normalized, reference ABT-199
Experimental: Experimental Example 6: Human Platelet Toxicity Experiment (Caspase-3 Activity Assay)
10 mL of human whole blood was collected using a heparin sodium anticoagulation tube, mixed well by turning upside down, and centrifuged at 90 g for 10 min. The supernatant was collected and centrifuged at 1950 g for 10 min. The supernatant was discarded, and the residue was resuspended in 4 mL of PBS, and centrifuged at 1190 g for 5 min, and the procedure was repeated once. The supernatant was discarded, and the platelets were resuspended in PBS and adjusted to the density of 2-3×10^8 cells/mL. Cells were seeded into a 96-well plate at a density of 2-3×10^7 cells/mL and at 100 μL/well. 50 μL of control buffer was added to each negative control well, and 50 μL of compound at a corresponding concentration was added to each compound well, so that the final concentration of the compound was 2.5 μM, 2 μM, 1 μM or 0.5 μM, followed by incubation in an incubator at 37° C. for 90 min. The liquids in the 96-well plate were transferred to 1.5 mL centrifuge tubes, respectively. The tubes were centrifuged at 4° C. and 6000 g for 5 min, and placed on ice for later use after the supernatant was discarded. 5× lysis buffer was diluted into 1× lysis buffer with water in the kit, and protease inhibitor cocktail was added at a 1:200 ratio to prepare a lysis mixture for later use. 40 μL of lysis mixture was added to each centrifuge tube, and the platelets at the bottom were resuspended using a pipette. The suspension was lysed on ice for 15-20 min and centrifuged at 4° C. and 14,000 g for 10 min. The sample was sub-packaged for later use. 10× assay buffer was diluted into 1× assay buffer with water in the kit, and substrate Ac-DEVD-AMC was added at a 1:600 ratio to prepare a reaction mixture. 5 μL of assay buffer and 40 μL of reaction mixture were added to each blank control well. 5 μL of control platelet lysate and 40 μL of reaction mixture were added to each negative control well. 5 μL of platelet lysate and 40 μL of reaction mixture were added to each compound well. In this procedure, 40 μL of reaction mixture was added at last. The resulting mixture was mixed gently, and the plate was read by a PE Envision multi-functional microplate reader (excitation: 360 nm, emission: 460 nm) once every 10 min for 6 times. Caspase-3 activity was determined based on the intensity of the released AMC fluorescence, that is the slope of the fitted line to which each well corresponds represents Caspase activity (all data were normalized and the reference was ABT-199).

RS4;11 cells = test: Inhibitory effect on proliferation of RS4;11 cells (CCK-8); assay type: cell-based, human; conditions: Homo sapiens, RS4-11, 72 h
Experimental: Experimental Example 2: Inhibitory Effect of Compounds on Proliferation of RS4;11 Cells
RS4;11 cells (from Nanjing Cobioer) in logarithmic growth phase and good cell condition were added to a centrifuge tube and centrifuged at 1500 rpm for 3 min in a low speed centrifuge. The supernatant was discarded, and 5 mL of complete medium (RPMI basic medium+10 wt % fetal bovine serum (FBS)) was added using a pipette for cell resuspension. The cells were counted using a cell counter, diluted with complete medium to a cell density of 2×10^5 cells/mL, and added with an equivalent amount of RPMI basic medium to adjust the serum concentration to 5% and the cell density to 1×10^5 cells/mL for plate seeding. The cells were seeded on a 96-well plate at 100 μL/well using a pipettor, and incubated in an incubator at 37° C., 5% CO2 with saturated humidity. After 24 h of incubation, compounds were loaded using a nanoliter pipettor, 2 duplicate wells were set for each concentration, and cells without compound were used as negative controls. […] Inhibition rate (%)=(mean value of negative control group—mean value of experimental group)/(mean value of negative control group—mean value of blank group)×100%. A dose-response curve was fitted by four-parameter analysis, with the logarithm of compound concentration serving as abscissa and inhibition rate serving as ordinate, so that IC50 was calculated (FIG. 2).

BCL-2/BAK = target: T1, BCL-2/BAK (Homo sapiens, UniProt P10415); test: Screening on inhibitory activity for BCL-2/BAK binding (Cisbio HTRF kit)
T1 construct: purchased Cisbio
T1 sequence (P10415 whole entry, species assumed): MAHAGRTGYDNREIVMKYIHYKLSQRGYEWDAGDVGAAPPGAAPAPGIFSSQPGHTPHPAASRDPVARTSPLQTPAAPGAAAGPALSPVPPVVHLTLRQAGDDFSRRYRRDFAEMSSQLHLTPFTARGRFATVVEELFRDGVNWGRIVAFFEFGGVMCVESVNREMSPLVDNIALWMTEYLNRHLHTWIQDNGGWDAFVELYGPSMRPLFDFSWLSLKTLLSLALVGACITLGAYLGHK
Experimental: 1.1 Screening on Inhibitory Activity for BCL-2/BAK Binding
500 nM Tag1-BCL-2 protein stock solution and 20 μM Tag2-BAK protein stock solution were diluted to 5 nM and 120 nM respectively with dilution buffer in kit (model: BCL-2/BAK (BH3) BINDING ASSAY KITS, from Cisbio). 5 μL of Tag1-BCL-2 protein diluent was added to each well, then different compounds dissolved with DMSO were added to the wells with a nanoliter pipettor, allowing the final compound concentrations to be 200 nM to 0.0488 nM (4-fold gradient for 7 concentrations in total). Blank control wells (without enzyme) and negative control wells (with enzyme, plus vehicle DMSO) were set, and 2 replicate wells were set. Finally, 5 μL of Tag2-BAK protein diluent was added to each well, and the mixture was mixed well by centrifugation and incubated at 25° C. for 15 min. 100× anti-Tag1-Eu^3+ and 100× anti-Tag2-XL665 were both diluted to 1× working concentration with the detection buffer in the kit. Anti-Tag1-Eu^3+ and anti-Tag2-XL665 were mixed well in a 1:1 ratio, and the mixture was added to wells at 5 μL/well, and incubated at 25° C. for 2 h or more. The plate was read using a PE Envision multi-functional microplate reader (excitation: […], emission: 665 nm) and IC50 (shown in table 1) was calculated by four-parameter fitting.

BCL-XL/BAK = target: T2, BCL-XL/BAK (Homo sapiens, UniProt Q07817); test: Screening on inhibitory activity for BCL-XL/BAK binding (Cisbio HTRF kit)
T2 construct: purchased Cisbio
T2 sequence (Q07817 whole entry, species assumed): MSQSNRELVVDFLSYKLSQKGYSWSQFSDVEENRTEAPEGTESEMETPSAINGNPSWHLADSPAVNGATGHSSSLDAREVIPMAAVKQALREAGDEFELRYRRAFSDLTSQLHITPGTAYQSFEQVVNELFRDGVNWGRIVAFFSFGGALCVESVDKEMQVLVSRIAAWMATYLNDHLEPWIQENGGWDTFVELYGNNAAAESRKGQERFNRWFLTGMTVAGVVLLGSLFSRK
Experimental: 1.2 Screening on Inhibitory Activity for BCL-XL/BAK Binding
300 nM Tag1-BCL-XL protein stock solution and 10 μM Tag2-BAK protein stock solution were diluted to 2 nM and 80 nM respectively with dilution buffer in kit (model: BCL-XL/BAK (BH3) BINDING ASSAY KITS, from Cisbio). 5 μL of Tag1-BCL-XL protein diluent was added to each well, then different compounds dissolved with DMSO were added to the wells with a nanoliter pipettor, allowing the final compound concentrations to be 2000 nM to 0.488 nM (4-fold gradient for 7 concentrations in total). Blank control wells (without enzyme) and negative control wells (with enzyme, plus vehicle DMSO) were set, and 2 replicate wells were set. Finally, 5 μL of Tag2-BAK protein diluent was added to each well, and the mixture was mixed well by centrifugation and incubated at 25° C. for 15 min. 100× anti-Tag1-Eu^3+ and 100× anti-Tag2-XL665 were both diluted to 1× working concentration with the detection buffer in the kit. Anti-Tag1-Eu^3+ and anti-Tag2-XL665 were mixed well in a 1:1 ratio, and the mixture was added to wells at 5 µL/well, and incubated at 25° C. for 2 h or more. The plate was read using a PE Envision multi-functional microplate reader (excitation: […], emission: 665 nm) and IC50 (shown in table 1) was calculated by four-parameter fitting.

CN1CCC(CCNc2ccc(S(=O)(=O)NC(=O)c3ccc(N4CCN(CC5=C(c6ccc(C(F)(F)F)cc6Cl)CC(C)(C)CC5)CC4)cc3Oc3cnc4[nH]ccc4c3)cc2[N+](=O)[O-])CC1 [Compound 18-1, 4-(4-{[2-(2-chloro-4-trifluoromethylphenyl)-4,4-dimethylcyclohex-1-enyl]methyl}-piperazin-1-yl)-N-({3-nitro-4-[(2-(1-methylpiperidin-4-yl)ethyl)amino]phenyl}sulfonyl)-2-(1H-pyrrolo[2,3-b]pyridin-5-yloxy)-benzamide]
human platelet Caspase-3 activity, Slope [1]: 0.31 | IC50 (RS4;11 cells): 4.3 nM | IC50 (BCL-2/BAK): 2.7 nM

CC1(C)CCC(CN2CCN(c3ccc(C(=O)NS(=O)(=O)c4ccc(NCC5CCCCO5)c([N+](=O)[O-])c4)c(Oc4cnc5[nH]ccc5c4)c3)CC2)=C(c2ccc(C(F)(F)F)cc2Cl)C1 (stereo not drawn) [Compound 14-1, 4-(4-{[2-(2-chloro-4-trifluoromethylphenyl)-4,4-dimethylcyclohex-1-enyl]methyl}-piperazin-1-yl)-N-({3-nitro-4-[(4-tetrahydro-2H-pyran-2-ylmethyl)amino]phenyl}sulfonyl)-2-(1H-pyrrolo[2,3-b]pyridin-5-yloxy)-benzamide]
IC50 (BCL-XL/BAK): 338 nM | IC50 (RS4;11 cells): 8.6 nM | IC50 (BCL-2/BAK): 5.1 nM

CC1(C)CCC(CN2CCN(c3ccc(C(=O)NS(=O)(=O)c4ccc(NC[C@H]5CN(S(C)(=O)=O)CCO5)c([N+](=O)[O-])c4)c(Oc4cnc5[nH]ccc5c4)c3)CC2)=C(c2ccc(C(F)(F)F)cc2Cl)C1 [Compound 63-1, (S)-4-(4-{[2-(2-chloro-4-trifluoromethylphenyl)-4,4-dimethylcyclohex-1-enyl]methyl}-piperazin-1-yl)-N-({3-nitro-4-[(((4-(methylsulfonyl)morpholin)-2-yl)methyl)amino]phenyl}sulfonyl)-2-(1H-pyrrolo[2,3-b]pyridin-5-yloxy)-benzamide]
IC50 (BCL-XL/BAK): 217 nM | IC50 (RS4;11 cells): 1.4 nM | IC50 (BCL-2/BAK): 2.3 nM

COCC(=O)N1CCC(CNc2ccc(S(=O)(=O)NC(=O)c3ccc(N4CCN(CC5=C(c6ccc(C(F)(F)F)cc6Cl)CC(C)(C)CC5)CC4)cc3Oc3cnc4[nH]ccc4c3)cc2[N+](=O)[O-])CC1 [Compound 73-1, 4-(4-{[2-(2-chloro-4-trifluoromethylphenyl)-4,4-dimethylcyclohex-1-enyl]methyl}-piperazin-1-yl)-N-({3-nitro-4-[((1-(2-methoxyacetyl)piperidin-4-yl)methyl)amino]phenyl}sulfonyl)-2-(1H-pyrrolo[2,3-b]pyridin-5-yloxy)-benzamide]
IC50 (BCL-XL/BAK): 204 nM | IC50 (RS4;11 cells): 1.5 nM | IC50 (BCL-2/BAK): 1.6 nM

CC(C)C(=O)N1CCC(CNc2ccc(S(=O)(=O)NC(=O)c3ccc(N4CCN(CC5=C(c6ccc(C(F)(F)F)cc6Cl)CC(C)(C)CC5)CC4)cc3Oc3cnc4[nH]ccc4c3)cc2[N+](=O)[O-])CC1 [Compound 23-1]
IC50 (BCL-XL/BAK): 302 nM | IC50 (RS4;11 cells): 10 nM | IC50 (BCL-2/BAK): 5.1 nM

CC1(C)CCC(CN2CCN(c3ccc(C(=O)NS(=O)(=O)c4ccc(NC[C@H]5CCCO5)c([N+](=O)[O-])c4)c(Oc4cnc5[nH]ccc5c4)c3)CC2)=C(c2ccc(C(F)(F)F)cc2Cl)C1 [Compound 38-1, (R)-4-(4-{[2-(2-chloro-4-trifluoromethylphenyl)-4,4-dimethylcyclohex-1-enyl]methyl}-piperazin-1-yl)-N-({3-nitro-4-[((tetrahydrofuran-2-yl)methyl)amino]phenyl}sulfonyl)-2-(1H-pyrrolo[2,3-b]pyridin-5-yloxy)-benzamide]
IC50 (BCL-XL/BAK): 187 nM | IC50 (RS4;11 cells): 6.6 nM | IC50 (BCL-2/BAK): 2.81 nM

CC1(C)CCC(CN2CCN(c3ccc(C(=O)NS(=O)(=O)c4ccc(NC[C@H]5CCCOC5)c([N+](=O)[O-])c4)c(Oc4cnc5[nH]ccc5c4)c3)CC2)=C(c2ccc(C(F)(F)F)cc2Cl)C1 [Compound 42-1, (R)-4-(4-{[2-(2-chloro-4-trifluoromethylphenyl)-4,4-dimethylcyclohex-1-enyl]methyl}-piperazin-1-yl)-N-({3-nitro-4-[((tetrahydropyran-3-yl)methyl)amino]phenyl}sulfonyl)-2-(1H-pyrrolo[2,3-b]pyridin-5-yloxy)-benzamide]
IC50 (BCL-XL/BAK): 220 nM | IC50 (RS4;11 cells): 6.8 nM | IC50 (BCL-2/BAK): 2.81 nM

CC1(C)CCC(CN2CCN(c3ccc(C(=O)NS(=O)(=O)c4ccc(NCC5CCCOC5)c([N+](=O)[O-])c4)c(Oc4cnc5[nH]ccc5c4)c3)CC2)=C(c2ccc(C(F)(F)F)cc2Cl)C1 (stereo not drawn) [Compound 13-1, 4-(4-{[2-(2-chloro-4-trifluoromethylphenyl)-4,4-dimethylcyclohex-1-enyl]methyl}-piperazin-1-yl)-N-({3-nitro-4-[(tetrahydro-2H-pyran-3-ylmethyl)amino]phenyl}sulfonyl)-2-(1H-pyrrolo[2,3-b]pyridin-5-yloxy)-benzamide]
IC50 (BCL-XL/BAK): 387 nM | IC50 (RS4;11 cells): 8.1 nM | IC50 (BCL-2/BAK): 3.6 nM

CC(=O)N1CCOC(CCNc2ccc(S(=O)(=O)NC(=O)c3ccc(N4CCN(CC5=C(c6ccc(C(F)(F)F)cc6Cl)CC(C)(C)CC5)CC4)cc3Oc3cnc4[nH]ccc4c3)cc2[N+](=O)[O-])C1 (stereo not drawn) [Compound 16-1, 4-(4-{[2-(2-chloro-4-trifluoromethylphenyl)-4,4-dimethylcyclohex-1-enyl]methyl}-piperazin-1-yl)-N-({3-nitro-4-[(2-(4-acetylmorpholin-2-yl)ethyl)amino]phenyl}sulfonyl)-2-(1H-pyrrolo[2,3-b]pyridin-5-yloxy)-benzamide]
IC50 (BCL-XL/BAK): 653 nM | IC50 (RS4;11 cells): 7.8 nM | IC50 (BCL-2/BAK): 3.09 nM
